Data as given in US20040209914A1, “Aromatic sulfone hydroxamic acids and their use as protease inhibitors” (priority 2000, published 2004).
Like-named read-outs stand apart in the source and are kept apart here.

Columns and labels:
Test in all cases: biochemical
Settings in all cases: fluorogenic MCA-peptide substrate, pH 7.5, room temperature
Recombinant human MMP-13 = biological target: T1, Recombinant human MMP-13 (Homo sapiens, UniProt P45452)
T1 construct: made in house; host or cells: baculovirus / insect cells
Experimental: (§1) Recombinant human MMP-1, MMP-2, MMP-9, MMP-13, and were used in this assay. These enzymes were prepared in the Assignee's es following usual laboratory procedures. Specifics for preparing and e enzymes can be found in the scientific literature describing these See, e.g., Enzyme Nomenclature (Academic Press, San Diego, Calif., d the citations therein).
The expressed proenzyme was first purified over a heparin agarose column, and then over a chelating zinc chloride column. The proenzyme was then activated by APMA for use in the assay.
(§2) The enzyme substrate was a methoxycoumarin-containing polypeptide having the following sequence:
(§3) MCA-ProLeuGlyLeuDpaAlaArgNH2
(§4) Here, “MCA” is methoxycoumarin and “Dpa” is 3-(2,4-dinitrophenyl)-L-2,3-diaminopropionyl alanine.
(§5) These solutions were then compared to a control (which contained equal amount of DMSO/buffer solution, but no hydroxamate compound) using Microfluor™ White Plates (Dynatech, Chantilly, Va.). Specifically, The MMPs were activated with APMA or trypsin. […] The control likewise was incubated at room temperature in separate plates with the MMP and 4 uM of the MMP substrate. […] Inhibition was measured as a reduction in fluorescent intensity as a function of inhibitor concentration using a Perkin Elmer (Norwalk, Conn.) L550 plate reader. The IC50's were then calculated from these measurements.

Recombinant human MMP-2 = biological target: T2, Recombinant human MMP-2 (Homo sapiens, UniProt P08253)
T2 construct: made in house
T2 sequence (P08253 110-660): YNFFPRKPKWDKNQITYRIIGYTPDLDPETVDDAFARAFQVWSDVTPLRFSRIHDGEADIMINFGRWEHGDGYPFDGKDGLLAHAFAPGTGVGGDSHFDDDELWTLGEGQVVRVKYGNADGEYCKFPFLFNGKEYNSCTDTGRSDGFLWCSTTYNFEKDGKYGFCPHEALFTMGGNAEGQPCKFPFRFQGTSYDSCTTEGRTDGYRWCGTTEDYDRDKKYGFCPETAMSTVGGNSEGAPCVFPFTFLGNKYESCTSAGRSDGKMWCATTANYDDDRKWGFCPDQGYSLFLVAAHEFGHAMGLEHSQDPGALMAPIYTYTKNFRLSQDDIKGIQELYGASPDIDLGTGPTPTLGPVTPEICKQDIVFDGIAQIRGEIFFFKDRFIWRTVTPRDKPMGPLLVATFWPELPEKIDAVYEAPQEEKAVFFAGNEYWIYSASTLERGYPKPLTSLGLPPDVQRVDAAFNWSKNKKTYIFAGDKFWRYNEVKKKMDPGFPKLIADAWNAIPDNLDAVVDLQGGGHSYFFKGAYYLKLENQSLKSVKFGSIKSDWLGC
Experimental: as §1
The MMP-2 was obtained from MMP-2 expressing transfected cells provided by Dr. Gregory Goldberg of Washington University.
as §2, §3, §4, §5

Recombinant human MMP-1 = biological target: T3, Recombinant human MMP-1 (Homo sapiens, UniProt P03956)
T3 construct: made in house; host or cells: transfected HT-1080 cells
T3 sequence (P03956 100-469): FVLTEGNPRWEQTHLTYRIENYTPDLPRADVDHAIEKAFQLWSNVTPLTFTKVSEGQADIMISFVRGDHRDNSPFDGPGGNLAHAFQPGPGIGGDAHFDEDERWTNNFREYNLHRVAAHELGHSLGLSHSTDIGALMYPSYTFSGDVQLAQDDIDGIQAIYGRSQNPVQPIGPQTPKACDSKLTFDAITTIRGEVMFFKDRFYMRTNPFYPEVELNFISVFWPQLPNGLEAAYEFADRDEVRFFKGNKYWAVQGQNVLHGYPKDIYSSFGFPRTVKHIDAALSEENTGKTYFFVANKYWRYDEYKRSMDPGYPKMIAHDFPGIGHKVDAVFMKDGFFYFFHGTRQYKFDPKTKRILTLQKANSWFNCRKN
Experimental: as §1
The MMP-1 was obtained from MMP-1 expressing transfected HT-1080 cells provided by Dr. Harold Welgus of Washington University in St. Louis, Mo. The MMP-1 was activated using 4-aminophenylmercuric acetate (APMA), and then purified over a hydroxamic acid column.
as §2, §3, §4, §5

SMILES	IC50 (Recombinant human MMP-13; read-out: MMP-13 IC50) [nM]	IC50 (Recombinant human MMP-2; read-out: MMP-2 IC50) [nM]	IC50 (Recombinant human MMP-1) [nM]	IC50 (Recombinant human MMP-13; MMP-13 IC50(nM)) [nM]	IC50 (Recombinant human MMP-2; MMP-2 IC50(nM)) [nM]
CC(C)Oc1ccc(C(=O)C2CCN(c3ccc(S(=O)(=O)C4(C(=O)NO)CCN(C5CC5)CC4)cc3)CC2)cc1 [Example 215]	0.9	22.7	> 10000	–	–
C=CCN1CCN(C(=O)C2CCN(c3ccc(S(=O)(=O)C4(C(=O)NO)CCOCC4)cc3)CC2)CC1 [Example 34]	19.3	3700	> 10000	–	–
O=C(C1CCN(c2ccc(S(=O)(=O)C3(C(=O)NO)CCOCC3)cc2)CC1)N1CCN(c2ccccc2F)CC1 [Example 12]	–	–	> 10000	6.7	1400
CC(C)CCOc1ccc(C(=O)C2CCN(c3ccc(S(=O)(=O)C4(C(=O)NO)CCN(C5CC5)CC4)cc3)CC2)cc1 [Example 217]	1.3	270	> 10000	–	–
COc1ccc(C(=O)C2CCN(c3ccc(S(=O)(=O)C4(C(=O)NO)CCOCC4)cc3)CC2)cc1C [Example 305]	6	3300	> 10000	–	–
CCC(C)Cc1ccc(C(=O)C2CCN(c3ccc(S(=O)(=O)C4(C(=O)NO)CCN(CC)CC4)cc3)CC2)cc1 (stereo not drawn) [Example 233]	1.2	1050	> 10000	–	–
O=C(c1ccc(CC2CCCCC2)cc1)C1CCN(c2ccc(S(=O)(=O)C3(C(=O)NO)CCOCC3)cc2)CC1 [Example 380]	9.7	2290	> 10000	–	–
CCN1CCC(C(=O)NO)(S(=O)(=O)c2ccc(N3CCC(C(=O)c4ccc(Cl)c(C)c4)CC3)cc2)CC1 [Example 221]	3.4	301	> 10000	–	–
C#CCN1CCC(C(=O)NO)(S(=O)(=O)c2ccc(N3CCC(C(=O)c4ccc(Cl)cc4)CC3)cc2)CC1 [Example 153]	0.2	30.6	> 10000	–	–
CC(=O)c1ccc(N2CCN(C(=O)C3CCN(c4ccc(S(=O)(=O)C5(C(=O)NO)CCOCC5)cc4)CC3)CC2)cc1 [Example 24]	6.7	–	> 10000	–	700
COCCN1CCN(C(=O)C2CCN(c3ccc(S(=O)(=O)C4(C(=O)NO)CCOCC4)cc3)CC2)CC1 [Example 18]	> 10000	> 10000	> 10000	–	–
COCCN1CCC(C(=O)NO)(S(=O)(=O)c2ccc(N3CCC(C(=O)c4ccc(CC5CCCC5)cc4)CC3)cc2)CC1 [Example 202]	0.4	1020	> 10000	–	–
O=C(c1ccc(Br)cc1)C1CCN(c2ccc(S(=O)(=O)C3(C(=O)NO)CCN(C4CC4)CC3)cc2)CC1 [Example 190]	0.2	23.1	> 10000	–	–
CCN1CCC(C(=O)NO)(S(=O)(=O)c2ccc(N3CCC(C(=O)c4ccc(C)cc4)CC3)cc2)CC1 [Example 208]	0.1	19.6	> 10000	–	–
COCCN1CCC(C(=O)NO)(S(=O)(=O)c2ccc(N3CCC(C(=O)c4ccc(CC5CCCCC5)cc4)CC3)cc2)CC1 [Example 203]	0.6	816	2370	–	–
Cc1ccc(C(=O)C2CCN(c3ccc(S(=O)(=O)C4(C(=O)NO)CCN(S(C)(=O)=O)CC4)cc3)CC2)cc1 [Example 207]	1.1	4.4	> 10000	–	–
C#CCN1CCC(C(=O)NO)(S(=O)(=O)c2ccc(N3CCC(C(=O)c4ccc(N(C)CC)cc4)CC3)cc2)CC1 [Example 174]	1.1	1070	> 10000	–	–
CCC(CC)Cc1ccc(C(=O)C2CCN(c3ccc(S(=O)(=O)C4(C(=O)NO)CCN(CCOC)CC4)cc3)CC2)cc1 [Example 230]	0.1	745	> 10000	–	–
CCCc1ccc(C(=O)C2CCN(c3ccc(S(=O)(=O)C4(C(=O)NO)CCN(CCOC)CC4)cc3)CC2)cc1 [Example 120]	0.85	126	> 10000	–	–
O=C(C1CCN(c2ccc(S(=O)(=O)C3(C(=O)NO)CCOCC3)cc2)CC1)N1CCN(c2ccc([N+](=O)[O-])cc2)CC1 [Example 25]	4	445	> 10000	–	–
CCN1CCC(C(=O)NO)(S(=O)(=O)c2ccc(N3CCC(C(=O)c4ccc(CCC(C)C)c(F)c4)CC3)cc2)CC1 [Example 249]	5.8	> 10000	> 10000	–	–
O=C(c1ccc(CCC2CCCC2)cc1)C1CCN(c2ccc(S(=O)(=O)C3(C(=O)NO)CCN(C4CC4)CC3)cc2)CC1 [Example 199]	11.7	3390	> 10000	–	–
COc1ccc(C2CCN(c3ccc(S(=O)(=O)C4(C(=O)NO)CCN(CC5CC5)CC4)cc3)CC2)cc1 [Example 268]	1.2	5	> 10000	–	–
Cc1cc(C(=O)C2CCN(c3ccc(S(=O)(=O)C4(C(=O)NO)CCN(C5CC5)CC4)cc3)CC2)ccc1Cl [Example 214]	1.7	160	> 10000	–	–
COCCN1CCC(C(=O)NO)(S(=O)(=O)c2ccc(N3CCC(C(=O)c4ccc(CCC5CCCC5)cc4)CC3)cc2)CC1 [Example 204]	0.2	1050	> 10000	–	–
O=C(c1ccco1)N1CCN(C(=O)C2CCN(c3ccc(S(=O)(=O)C4(C(=O)NO)CCOCC4)cc3)CC2)CC1 [Example 13]	31.6	3500	> 10000	–	–
O=C(NO)C1(S(=O)(=O)c2ccc(N3CCC(c4ccc(F)cc4)CC3)cc2)CCN(CC2CC2)CC1 [Example 263]	1.5	2.6	> 10000	–	–
O=C(c1ccc2ccccc2c1)C1CCN(c2ccc(S(=O)(=O)C3(C(=O)NO)CCN(CC4CC4)CC3)cc2)CC1 [Example 187]	2.7	242	> 10000	–	–
C=CCN1CCC(C(=O)NO)(S(=O)(=O)c2ccc(N3CCC(C(=O)c4ccc(C)c(C)c4)CC3)cc2)CC1 [Example 158]	2.4	218	> 10000	–	–
